Measurements taken from PubChem BioAssay (NCI).
Values joined by “and” are separate entries in the source; they are usually repeats but may differ in a detail not shown here. Equal entries are not always repeated.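 Following 48 hours of exposure in 96-well plates, responses at five concentrations were used to interpolate endpoints linearly. Here, GI50 denotes the concentration required for 50% inhibition of growth. TGI: total growth inhibition.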

Columns and labels:
Assay in all cases: growth of human tumour cells (NCI), 48 h
OVCAR-5 ovarian = tested on: OVCAR-5 ovarian
IGROV1 ovarian = tested on: IGROV1 ovarian
MALME-3M melanoma = tested on: MALME-3M melanoma
EKVX NSCLC = tested on: EKVX NSCLC
RXF 393 renal = tested on: RXF 393 renal
SF-295 CNS = tested on: SF-295 CNS
UACC-257 melanoma = tested on: UACC-257 melanoma
DU-145 prostate = tested on: DU-145 prostate
CCRF-CEM leukemia = tested on: CCRF-CEM leukemia
MCF7 breast = tested on: MCF7 breast
PC-3 prostate = tested on: PC-3 prostate

| Compound | TGI (OVCAR-5 ovarian) | TGI (IGROV1 ovarian) | TGI (MALME-3M melanoma) | TGI (EKVX NSCLC) | TGI (RXF 393 renal) [µM] | TGI (SF-295 CNS) [µM] | TGI (UACC-257 melanoma) [µM] | TGI (DU-145 prostate) | TGI (CCRF-CEM leukemia) [µM] | TGI (MCF7 breast) [µM] | TGI (PC-3 prostate) [µM] | GI50 (OVCAR-5 ovarian) [µM] | GI50 (DU-145 prostate) [µM] | GI50 (MALME-3M melanoma) [µM] | GI50 (EKVX NSCLC) [µM] | GI50 (RXF 393 renal) [µM] | GI50 (SF-295 CNS) [µM] | GI50 (MCF7 breast) [µM] | GI50 (PC-3 prostate) [µM] | GI50 (UACC-257 melanoma) [µM] |
| --- | --- | --- | --- | --- | --- | --- | --- | --- | --- | --- | --- | --- | --- | --- | --- | --- | --- | --- | --- | --- |
| Nc1nc2c(ncn2CCOC(c2ccccc2)P(=O)(O)O)c(=O)[nH]1 (configuration not stated) | > 100 µM | > 100 µM | > 100 µM | > 100 µM | > 100 | > 100 | > 100 |  |  |  |  |  |  |  |  |  |  |  |  |  |
| CCCCCCCCCCCCCCCCCCNc1ccn(C2OC(COP(=O)(O)O)C(O)C2O)c(=O)n1 (configuration not stated) | > 100 µM | > 100 µM |  | > 100 µM | > 100 | > 100 | > 100 | > 100 µM | > 100 | > 100 | > 100 |  |  |  |  |  |  |  |  |  |
| C=C(C)CCC1CCCCC(CN(C)C)C1=O (configuration not stated) | > 100 µM | > 100 µM |  | > 100 µM |  | > 100 | > 100 | > 100 µM | > 100 | > 100 | > 100 |  |  |  |  |  |  |  |  |  |
| Cn1c(-c2csc(-c3ccc(Cl)cc3)n2)n[nH]c1=S | > 100 µM | 38 µM | 69.6 µM | > 100 µM | 46.3 | 34.3 | > 100 |  | > 100 | > 100 | > 100 |  |  |  |  |  |  |  |  |  |
| c1ccc2c(c1)CCc1c-2n(CCN2CCCCC2)c2ccccc12 | 30.2 µM | 27.3 µM | 40.3 µM | 37.9 µM |  | 30.8 | 32.5 | > 100 µM | > 100 | 30.9 | 27.1 |  |  |  |  |  |  |  |  |  |
| COc1ccc(CNc2nc(NCc3ccc(OC)cc3)nc(Nc3ccccc3)n2)cc1 | > 100 µM | > 100 µM | > 100 µM | > 100 µM | > 100 | 8.83 | > 100 | > 100 µM |  | > 100 | > 100 |  |  |  |  |  |  |  |  |  |
| Cc1cc2c(c3oc(C(O)(CO)C4CO4)cc(=O)c13)C(=O)c1c(O)cccc1C2=O (configuration not stated) | 0.00791 µM and 0.00328 µM and 0.0041 µM | 0.0019 µM and 0.00294 µM | 0.00527 µM and 0.00231 µM and 0.0152 µM | 0.0171 µM and 0.0378 µM | 0.00254 | 0.00094 | 0.0404 | 0.00249 µM and 0.00108 µM | 0.000111 |  |  |  |  |  |  |  |  |  |  |  |
| OCCSCCCSCCO | > 100 µM | > 100 µM |  | > 100 µM |  | > 100 | > 100 | > 100 µM | > 100 | > 100 | > 100 |  |  |  |  |  |  |  |  |  |
| Cc1cc(Cc2cc(C)c(NC(=O)C(=O)C3C(=O)NC(=S)NC3=O)c(C(C)C)c2)cc(C(C)C)c1NC(=O)C(=O)C1C(=O)NC(=S)NC1=O | > 100 µM | > 100 µM | > 100 µM | > 100 µM | > 100 | > 100 | > 100 |  | > 100 |  |  |  |  |  |  |  |  |  |  |  |
| CN1N=C2c3ccccc3CC[C@H]2C1c1ccccc1 (some centres not stated) | > 100 µM | > 100 µM | 72.9 µM | > 100 µM | 81.5 | > 100 | 70.3 |  | > 100 |  |  |  |  |  |  |  |  |  |  |  |
| CCSc1nc2sc(C)c(C)c2c(=O)n1-c1ccc(C(=O)O)cc1 | > 100 µM | > 100 µM | > 100 µM | > 100 µM | > 100 | > 100 | > 100 |  | > 100 |  |  |  |  |  |  |  |  |  |  |  |
| N#CCCC(CC#N)N1CCN(CCO)CC1 (configuration not stated) | > 100 µM | > 100 µM | > 100 µM | > 100 µM | > 100 | > 100 | > 100 | > 100 µM | > 100 | > 100 |  |  |  |  |  |  |  |  |  |  |
| Cn1c(C(C#N)c2cc(Cl)ncn2)nc2ccccc21 (configuration not stated) | > 100 µM | > 100 µM | > 100 µM | > 100 µM | > 100 | > 100 | > 100 | > 100 µM |  |  |  |  |  |  |  |  |  |  |  |  |
| C#CC(O)/C=C/CCCCCCC#CC/C=C\CC#CCCCCCC/C=C/C(O)C#C (configuration not stated) | 7.86 µM | 2.17 µM |  | 5.23 µM | 28.3 | 26.9 | 8.57 | 8.99 µM | 0.722 | 25.9 | 24.4 |  |  |  |  |  |  |  |  |  |
| CO/N=C1\CCC2(O)C3Cc4ccc(O)c5c4C2(CCN3CC2CC2)[C@H]1O5 (some centres not stated) | > 100 µM | > 100 µM | > 100 µM | > 100 µM |  | > 100 |  | > 100 µM | > 100 | > 100 | > 100 |  |  |  |  |  |  |  |  |  |
| CC1=C(C2=C(C)C(=O)C(=O)c3cc(C)ccc32)c2ccc(C)cc2C(=O)C1=O | 0.45 µM |  | 0.435 µM | 0.686 µM | 0.62 | 0.373 | 0.382 | 2.84 µM | > 100 |  | 1.04 |  |  |  |  |  |  |  |  |  |
| CC(SC(=S)N1CCCCC1)C(=O)Nc1nnc(-c2ccc(Cl)cc2)o1 (configuration not stated) | > 100 µM | > 100 µM | 72.6 µM |  | > 100 |  | > 100 | > 100 µM |  | 76.1 | 82.9 |  |  |  |  |  |  |  |  |  |
| Cc1nc2c(nc1C)-c1c(c3c(n1Cc1ccccc1)C(=O)CCC3)C(=O)C2=O | > 100 µM |  | 14.2 µM | > 100 µM |  | 71.1 | 48.3 | 88.8 µM | > 100 | 5.39 | 29.4 |  |  |  |  |  |  |  |  |  |
| O=c1ccc2ccccc2o1 | > 100 µM | > 100 µM | > 100 µM | > 100 µM | > 100 | > 100 | > 100 |  | > 100 |  |  |  |  |  |  |  |  |  |  |  |
| Oc1[nH]c2ccccc2c1N=NC1=NCCCCN1 | > 100 µM | > 100 µM | > 100 µM | > 100 µM |  | > 100 | > 100 | > 100 µM | > 100 | > 100 | > 100 |  |  |  |  |  |  |  |  |  |
| CCOC(=O)CCC(NC(=O)c1ccc(CNc2nc3cc(N)cc(N)c3nc2-c2ccccc2)cc1)C(=O)OCC (configuration not stated) | > 100 µM | > 100 µM | 35.3 µM | > 100 µM | > 100 | > 100 | 39.1 | > 100 µM |  | > 100 | > 100 |  |  |  |  |  |  |  |  |  |
| CN1CCN(CC(=O)Nc2ccc3ncnc(Nc4ccc(Oc5cccc(C(F)(F)F)c5)c(Cl)c4)c3c2)CC1 | 2.98 µM |  | 3.05 µM | 2.7 µM | 2.89 | 3.31 | 3.79 | 2.71 µM |  | 3 | 3.26 | 1.58 | 1.4 | 1.56 | 1.32 | 1.41 | 1.81 | 1.48 | 1.69 | 1.93 |
